Measured values taken from patent US9180217B2, “Sterilization system and device” (priority 2004, dated 2015).

How the values were obtained:
[1] = tested on: spores (Biological Indicator manufactured by Raven); assay: Humidity effects on spores (Raven Biological Indicator in Tyvek sachets, 300 ml glass vessels); type: cell-based; conditions: 5% nitrogen oxide, Diluent Air
Method: This Example illustrates the effects of humidity on the sterilization of spores using both NO and NO2/N2O4 as sterilizing gases. Tests are conducted in 300 ml glass vessels.
The vessels are allowed to stand for 30 minutes, Two Tyvek sachets, each containing a Biological Indicator manufactured by Raven (product number 3367771 3-6100ST) are placed in each vessel. The vessels are purged as follows: The vessel is evacuated to 8″Hg absolute. The Vessel is re-filled with air to atmospheric pressure. Evacuation/filling is repeated two more times. The vessel is evacuated to 8″Hg absolute. Sterilizing gases are introduced into the vessel. Compressed air (9% Relative Humidity) is added until the vessel reaches atmospheric pressure. The sachets are allowed to remain in the sterilizing environments for either five or ten 10 minutes before being removed and the BI is cultured in 4 milliliters of Tryptic Soy Broth for 14 days at 55-60° C.

[2] = tested on: Staphylococcus epidermides; assay: Pressure vessel NO sterilization of dipped stainless steel strips; type: cell-based, Staphylococcus epidermides (strain 21977); conditions: Five Minute Sterilization Cycle, NO gas at atmospheric pressure
From the text: (§1) A glass pressure vessel is connected to a scrubbed NO gas tank source. The pressure vessel is purged five times with Argon gas to eliminate atmospheric oxygen (preventing formation of NO2•) and an additional three purges of NO are used to ensure a pure NO atmosphere and consistent results of bactericidal activity. To test the sterilization method: Bacillus subtillis var niger 9372 is used (after obtaining >80% endospore formation; a standard for ethylene oxide and autoclave test sterilization), as well as organisms commonly found on the epidermis: Staphylococcus aureus (strain 21769) and Staphylococcus epidermides (strain 21977), and the enteric organisms: Klebsiella pneumoniae (strain 21991) and Serratia marcesens (strain 21140). This particular Serratia strain has been found in previous studies to be one of the most resistant bacteria to the bactericidal effects of NO in culture. See, Raulli R et al., Recent Res Devel Microbiol 6: 177-183, 2002, the entire contents of which is incorporated by reference herein.
(§2) The organisms are cultured overnight in brain heart infusion BHI. […]
(§3) The sealed vessel is carefully opened in a laminar flow hood after all the NO had been purged with Argon. […] The samples are observed (digitally photographed) 24 hrs later, placed back in the waterbath and are measured for absorbance 72 hrs later. […]

[3] = tested on: Serratia marcesens; assay: Portable system (blood storage container, diazeniumdiolate plus acidic buffer) sterilization of stainless steel strips; type: cell-based, S. marcesens; conditions: Fifteen Minute Sterilization Cycle; stainless steel strip
From the text: Similar to Example 1, a portable system is devised using blood storage containers and other laboratory items. In this construct, a blood storage container (Nexell, Irvine, Calif.; Lifecell PL732 plastic tissue culture flask) serves as the sterilization chamber. It has multiple ports, is easily attached to tubing or other chambers, and is easily cut and heat sealed for insertion and removal of contaminated/sterilized samples. The heat seal is strong and holds well at pressure, even though 1 ATM of pressure is used experimentally. Two 60 ml syringes connected to each other and a line of tubing by a three-way stopcock are employed to mix acidic buffer in one syringe with NO-releasing diazeniumdiolate in the other syringe. The tubing is connected to the blood container/sterilization chamber.
The stopcock is turned so that the acidic buffer can be added to the syringe containing the diazeniumdiolate. The valve is immediately closed to the buffer syringe and opened to the sterilization chamber. The 300 cc sterilization chamber inflates in about 15 seconds. Experiments are performed as described above, except that the devised system is used instead of the pressure vessel.
The test organisms are cultured overnight in BHI. The cultures contained at least 10^8 CFU/ml (100-fold greater than FDA testing guidelines) based on standardized ABS595 curves for each organism. […]

[4] = tested on: sporulated B. subtilis var. niger; assay: Sterilization of contaminated stainless steel strips with varying quantities of delivered NO; type: cell-based; conditions: 5%, 2.5% and 1% NO, five minutes, culture in LB 48 hours then plating
From the text: A blood storage container (Nexell, Irvine, Calif.; Lifecell PL732 plastic tissue culture flask) is used as the sterilization chamber. Strips of stainless steel are dipped in 10^6 CFU/ml sporulated B. subtilis var. niger (as determined by ABS595 standardization curves). The strips are allowed to air dry, placed in the sterilization chamber, and then the sterilization chamber is heat sealed. The sterilization chamber is evacuated using a syringe and controlling air flow with the sterilization chamber valves. A known quantity of air is added to the vessel using a graduated syringe.
An NO-generating donor compound is placed in a 7 cc gas generation chamber. The gas generation chamber is attached to the storage container through luer lock connectors. The liquid activator, 3.0N HCl is added to the gas generation chamber and the generated gas is allowed to flow into the sterilization chamber. After a brief generation period, the gas is sealed in the sterilization chamber using a compression valve.
Varying quantities of NO gas, namely 10%, 5%, 2.5% and 1% NO, are tested for their efficacy in the sterilization chamber. The quantity (%) of NO gas generated and added to the sterilization chamber is calculated from the number of moles of NO required to be generated to result in the desired percentage of NO. […]

[5] = tested on: Klebsiella pneumoniae; assay: Pressure vessel NO sterilization of dipped stainless steel strips; type: cell-based, Klebsiella pneumoniae (strain 21991); conditions: Five Minute Sterilization Cycle, NO gas at atmospheric pressure
From the text: as §1, §2, §3

[6] = tested on: Serratia marcesens; assay: as above; type: cell-based, Serratia marcesens (strain 21140); conditions: Five Minute Sterilization Cycle, NO gas at atmospheric pressure
From the text: as §1, §2, §3

In the case of `[N]=O` [NO, nitric oxide], the “Spore Condition in 14 Days” value ([1]; Exposure 5 Minutes, Dry) is reported as “Alive”, the “Spore Condition in 14 Days” value ([1]; Exposure 5 Minutes, Humid) is reported as “Dead” and the “Spore Condition in 14 Days” value ([1]; Exposure 10 Minutes, Dry) is reported as “Alive”. The “Spore Condition in 14 Days” value ([1]; Exposure 10 Minutes, Humid) was “Dead”, the “trials showing no bacterial growth (Killed)” value [2] was 3/3 Killed and the “trials Killed” value [3] was 3/3 Killed. For the same molecule, the “killing 10^6 CFU/ml sporulated B. subtilis var. niger” value [4] was “effective at killing”, the “trials showing no bacterial growth (Killed)” value [5] was 3/3 Killed and the “trials showing no bacterial growth (Killed)” value [6] was 3/3 Killed.
